Residues, ends and D or L forms follow the SMILES beside them. *: point of attachment. Cbz = O=C(OCc1ccccc1)*; OtBu = CC(C)(C)O*
B1: M-CSF: macrophage colony stimulating factor (protein, UniProt P09603 33-554, looked up)
Macrophage colony-stimulating …: EEVSEYCSHMIGSGHLQSLQRLIDSQMETSCQITFEFVDQEQLKDPVCYLKKAFLLVQDIMEDTMRFRDNTPNAIAIVQLQELSLRLKSCFTKDYEEHDKACVRTFYETPLQLLEKVKNVFNETKNLLDKDWNIFSKNCNNSFAECSSQDVVTKPDCNCLYPKAIPSSDPASVSPHQPLAPSMAPVAGLTWEDSEGTEGSSLLPGEQPLHTVDPGSAKQRPPRSTCQSFEPPETPVVKDSTIGGSPQPRPSVGAFNPGMEDILDSAMGTNWVPEEASGEASEIPVPQGTELSPSRPGGGSMQTEPARPSNFLSASSPLPASAKGQQPADVTGTALPRVGPVRPTGQDWNHTPQKTDHPSALLRDPPEPGSPRISSLRPQGLSNPSTLSAQPQLSRSHSSGSVLPLGELEGRRSTRDRRSPAEPEGGPASEGAARPLPRFNSVPLTDTGHERQSEGSFSPQLQESVFHLLVPSVILVLLAVGGLLFYRWRRRSHQEPQRADSPLEQPEGSPLTQDDRQVELPV

Tests used:
[1] = tested on: M-CSF-treated human monocytes; assay: Cytokine production in response to various stimuli (ELISA); assay type: cell-based; settings: production induced by the stimulus; means of 4-11 experiments
Experimental: The elutriated human monocytes were incubated at approximately 2×10^6/ml in RPMI 1640 with 25 mM HEPES and 2 mM L-glutamine, supplemented with 5% (v/v) heat inactivated fetal calf serum and 10 units/ml penicillin/streptomycin. […] The cells were then replated on 100 mm Petri dishes and infected for 2 h with a m.o.i. of between 10:1 and 120:1 (in most experiments, 20:1. 40:1 or 80:1 was used) of either AdvIκBα or Adv0, in serum-free RPMI 1640. Cells were then incubated in RPMI 1640 supplemented as above for 48 h to allow for significant over-expression of IκBα, as assessed. During the changes of medium involved, non-adherent cells were discarded, resulting in a further purification of monocyte-derived macrophages.
(§1) In the assays for cytokine production, cells were replated at 5×10^5 cells per well on a 96-well dish, and stimulated as above for 4 or 16 h. Supernatants were analysed for TNFα (27), IL-1β, IL-6 and IL-8 (23), IL-10 (29, 30), IL-1ra and the p55 and p75 soluble TNF receptors (31) by ELISA. The proteosome inhibitor Cbz-Ile-Glu(O-t-Bu)-Ala-leucinal (PSI) was obtained from Calbiochem (Nottingham. England).
LPS is capable of inducing all the cytokines (TNFα, IL-1β, IL-6, IL-8) and inhibitors (IL-10, IL-1ra and the soluble TNF receptors) assayed in this study (Table I; the results are means of 4-11 experiments). The induction of TNFα mRNA by zymosan, has previously been reported to be far weaker than LPS-induced TNFα mRNA in mouse peritoneal macrophages (32), but the TNFα response to zymosan in M-CSF-treated human monocytes was equal to that of LPS (Table 1).

[2] = tested on: human monocyte-derived macrophages; assay: Effect of proteosome inhibitor PSI on induced TNFα production; assay type: cell-based; settings: FIG. 14
Experimental: as §1
The independence from NFκB of zymosan induced TNF was further emphasised by studies with the proteosome inhibitor PSI. Inhibition of proteosome function inhibits IκBα degradation thus preventing NFκB nuclear translocation.

[3] = tested on: primary human monocytes; assay: Adenoviral infection of primary human monocytes (β-galactosidase expression by FACS); assay type: cell-based; settings: prior cytokine treatment for 72 hours, then β-galactosidase adenovirus at 100 m.o.i.
Experimental: Human monocytes or murine RAW 264.7 were cultured at 5×10^5/ml in RPM1 1640 (Bio Whittaker inc.) supplemented with 5% (v/v) heat inactivated foetal calf serum containing 10 units/ml penicillin/streptomycin and 2 mM glutamine at 37° C. Monocytes were treated with GM-CSF (5U/ml) or M-CSF (1 μg/ml) for 72 hours. Expression of integrins was assayed by indirect immunofluorescence and FACS analysis using monoclonal antibodies to αVβ3 (100 μg/ml LM609, provided by IXSYS Corp. (San Diego Calif. USA), or αVβ5 (undiluted active supernatant kindly provided by J. Gamble Smith). The commercially available monoclonal antibody OX14(100 μg/ml) was used as a negative control.
Following cytokine treatment monocytes were washed in RPM 1640 and resuspended at 5×10^5 cells/ml. The cells were infected with virus at the indicated plaque forming units per cell (multiplicity of infection—m.o.i.). β-galactosidase expression in individual cells was measured by FACS.

[4] = tested on: U937; assay: Adenovirus infection and integrin induction in U937 cell line; assay type: cell-based, human; settings: results not shown
[5] = tested on: THP-1; assay: Adenovirus infection and integrin induction in THP-1 cell line; assay type: cell-based, human; settings: results not shown

| Molecule | Anti-inflammatory cytokines: IL-10 [1] [pg/mL] | Anti-inflammatory cytokines: IL-tra [1] [pg/mL] | Anti-inflammatory cytokines: P55 s TNF-R [1] [pg/mL] | Anti-inflammatory cytokines: P75 s TNF-R [1] [pg/mL] | Proinflammatory cytokines: IL-1 [1] [pg/mL] | Proinflammatory cytokines: IL-6 [1] [pg/mL] | Proinflammatory cytokines: IL-8 [1] [pg/mL] | Proinflammatory cytokines: TNFα [1] [pg/mL] | cells expressing the β-galactosidase gene [3] [%] | induction of αVβ3 or αVβ5 expression [4] | induction of αVβ3 or αVβ5 expression [5] | other results |
| --- | --- | --- | --- | --- | --- | --- | --- | --- | --- | --- | --- | --- |
| C[C@H](CCC(=O)O)C[C@H](C)C[C@H](C)C(=O)/C=C(\O)[C@H](C)C[C@H](C)C/C=C/[C@@H](C)[C@@H](O)[C@@H](C)[C@@H](O)C[C@@H]1CC[C@@](C)([C@H]2CC[C@@](C)([C@@H](C)O)O2)O1 [Lomycin, ionomycin] | 0 | 0 | 0 | 0 | 0 | 0 | 900 | 0 |  |  |  |  |
| CCCCCCCCCCCCCC(=O)O[C@@H]1[C@@H](C)[C@@]2(O)[C@@H](C=C(CO)C[C@]3(O)C(=O)C(C)=C[C@@H]23)[C@@H]2C(C)(C)[C@]12OC(C)=O [PMA] | 0 | 1000 | 0 | 500 | 400 | 300 | 3000 | 6000 |  |  |  |  |
| CC[C@H](C)[C@H](NC(=O)OCc1ccccc1)C(=O)N[C@@H](CCC(=O)OC(C)(C)C)C(=O)N[C@@H](C)C(=O)N[C@H](C=O)CC(C)C [PSI, Cbz-Ile-Glu(O-t-Bu)-Ala-leucinal] (Cbz-IE(OtBu)AL-aldehyde) |  |  |  |  |  |  |  |  |  |  |  | effect on LPS induced TNF production ([2]; LPS): very effective in blocking; effect on zymosan-induced TNF production ([2]; zymosan): did not affect |
| GM-CSF: granulocyte-macrophage colony stimulating factor |  |  |  |  |  |  |  |  | 52 | neither cytokine was able to induce | neither cytokine was able to induce |  |
| TNFα | 0 |  |  |  | 200 | 2000 |  |  |  |  |  |  |
| B1 |  |  |  |  |  |  |  |  | 90 | neither cytokine was able to induce | neither cytokine was able to induce |  |

Source: patent US20020177572A1, “Viral infection of cells” (priority 1997, published 2002)
